Earlier results in patent US7635572B2, “Methods for conducting assays for enzyme activity on protein microarrays” (Life Technologies Corporation, priority 2004, dated 2009).

System: 39 kinases (Table 4)
Details: known general specificities of the inhibitors, Table 3; cited from earlier work

SMILES: Oc1ccc(-c2nc(-c3ccncc3)c(-c3ccc(F)cc3)[nH]2)cc1 [SB 202190]
- General Specificity (known): serine/threonine
